Source: ChEMBL document CHEMBL6134896, “Recent Advances in Augmenting the Therapeutic Efficacy of Peptide-Drug Conjugates” (2025)

Columns and labels:
OVCAR-3 = assay: Growth inhibition of human OVCAR-3 cells incubated for 3 days by CellTiter-Glo luminescent assay; assay type: functional; settings: OVCAR-3, 72 h, time 3 day
SK-OV-3 = assay: Growth inhibition of human SK-OV-3 cells incubated for 3 days by CellTiter-Glo luminescent assay; assay type: functional; settings: SK-OV-3, 72 h, time 3 day

A GI50 (OVCAR-3) of 4 nM and a GI50 (SK-OV-3) of 453 nM were found for `CC[C@H](C)[C@@H]([C@@H](CC(=O)N1CCC[C@H]1[C@H](OC)[C@@H](C)CC(=O)N[C@H](C)[C@@H](C)c1ccccc1)OC)N(C)C(=O)[C@@H](NC(=O)[C@H](C(C)C)N(C)C(=O)OCc1ccc(NC(=O)[C@H](CCCNC(N)=O)NC(=O)[C@@H](NC(=O)CCCCCN2C(=O)CC(SCC[C@@H](NC(=O)[C@H](Cc3ccc(O)cc3)NC(=O)[C@H](CO)NC(=O)[C@H](Cc3c[nH]c4ccccc34)NC(=O)[C@H](Cc3cnc[nH]3)NC(=O)[C@@H]3CCC(=O)N3)C(=O)N[C@@H](CC(C)C)C(=O)N[C@@H](CCCNC(=N)N)C(=O)N3CCC[C@H]3C(=O)NCC(N)=O)C2=O)C(C)C)cc1)C(C)C` (some centres not stated) in this work.
